Experimental data: patent publication US6579899B1, “Composition for treatment of stress” (Massachusetts Institute of Technology, priority 1998, dated 2003)
“Also recorded” adds a separate entry of the source.

What was measured:
obese, stressed patients [1] = experiment: questionnaire rating appetite and hunger; type: in vivo, human; settings: 30 mg/day, during the treatment period, initial score 10.5
Description: (§1) A subgroup of obese individuals is identified, which individuals describe themselves as being unable to control their eating and who attempt to continue on a weight-reducing diet when experiencing emotional distress. […]
(§2) Objective measurements of emotional distress are made in some patients using the CES-D (Center for […] Depression Form) test, which measures current levels of emotional distress (Radloff, et al., The CES-D Scale: A Self Report Depression Scale for Research in the General Population Applied Psychological Measurement 1: 385-401, 1977); and the POMS (Profile of Mood States test, that assesses tension, depression, anger and confusion (McNair, et al., Profile of Mood States Manual;San Diego: Educational and Industrial Testing Service, 1971); both of these references are hereby incorporated by reference in their entirety. These tests are also given monthly during the treatment period. At the same time, patients also complete questionnaires that ask the patients to rate their appetite and hunger, and also to rate their tendency to eat in response to a variety of emotional and stressful triggers. The patients are also weighed monthly.

obese, stressed patients [2] = experiment: CES-D test of current levels of emotional distress in patients; type: in vivo, human
Description: as §1, §2

[3] = body weight in four month weight loss program; type: in vivo, human
Description: as §1, §2

obese, stressed patients [4] = experiment: questionnaire rating tendency to eat in response to emotional and stressful triggers; type: in vivo, human
Description: as §1, §2

obese, stressed patients [5] = experiment: POMS (Profile of Mood States) test; type: in vivo, human; settings: 30 mg/day, during the study period, baseline 24
Procedure: A subgroup of obese individuals is identified, which individuals describe themselves as being unable to control their eating and who attempt to continue on a weight-reducing diet when experiencing emotional distress. These patients are treated for four months by enrolling them in a weight loss program which includes the administration of dexfenfluramine at 30 mg/day and which involves adherence to a reduced-calorie meal plan.
as §2

rats = settings: cited from earlier work

## CCN[C@@H](C)Cc1cccc(C(F)(F)F)c1 [dexfenfluramine]
obese, stressed patients [1]
  score on the appetite and hunger scale: 5.0
obese, stressed patients [2]; 30 mg/day, fifth of six women, from 15
  lowered CES-D score: 7
obese, stressed patients [2]; 30 mg/day, first of six women with above normal score at start, from 34
  lowered CES-D score: 7
obese, stressed patients [2]; 30 mg/day, fourth of six women, from 19
  lowered CES-D score: 5
obese, stressed patients [2]; 30 mg/day, second of six women, from 37
  lowered CES-D score: 8
obese, stressed patients [2]; 30 mg/day, sixth of six women, from 15
  lowered CES-D score: 3
obese, stressed patients [2]; 30 mg/day, stress-induced overeaters
  indicators of stress: reduces the indicators of stress
obese, stressed patients [2]; 30 mg/day, third of six women, from 22
  lowered CES-D score: 9
obese, stressed patients [2]; patient eleven, 30 mg/day, Month 4, baseline 19
  Mood Scores CES-D: 4
obese, stressed patients [2]; patient six, 30 mg/day, Month 4, baseline 5
  Mood Scores CES-D: 1
obese, stressed patients [2]; patient ten, 75 rising to 150 mg/day, Month 4, baseline 8
  Mood Scores CES-D: 2
obese, stressed patients [2]; patient three, 50 rising to 150 mg/day, Month 4, baseline 23
  Mood Scores CES-D: 17
obese, stressed patients [2]; patient twelve, 75 then 100 mg/day, Month 4, baseline 29
  Mood Scores CES-D: 18
[3]; 30 mg/day, four months, reduced-calorie meal plan
  ability of stressed overeaters to lose weight: enhance the ability of stressed overeaters to lose weight; also recorded: promotes the ability to control food intake and to lose weight
[3]; patient eleven, 30 mg/day, starting weight 90.0 kg
  weight at the end of 4 months: 82.6 kg
[3]; patient eleven, 30 mg/day, starting weight 198 pounds
  weight at the end of 4 months: 181.7 pounds
[3]; patient six, 30 mg/day, starting weight 98.2 kg
  weight after 4 months: 93.4 kg
[3]; patient six, 30 mg/day, starting weight 216 pounds
  weight after 4 months: 205.5 pounds
[3]; patient ten, 75 rising to 150 mg/day, starting weight 83.6 kg
  weight after 4 months: 76.8 kg
[3]; patient ten, 75 rising to 150 mg/day, starting weight 184 pounds
  weight after 4 months: 169 pounds
[3]; patient three, 50 rising to 150 mg/day, starting weight 137.3 kg
  weight after 4 months: 130 kg
[3]; patient three, 50 rising to 150 mg/day, starting weight 302 pounds
  weight after 4 months: 286 pounds
[3]; patient twelve, 75 then 100 mg/day, starting weight 90.0 kg
  weight at the end of 4 months: 82.6 kg
[3]; patient twelve, 75 then 100 mg/day, starting weight 198 pounds
  weight at the end of 4 months: 182 pounds
obese, stressed patients [4]; 30 mg/day, end of the treatment period, from 23.4±9.8, ± standard deviations
  score on the emotional triggers to overeating report: 8.6±8.5
obese, stressed patients [4]; patient eleven, 30 mg/day, Month 4, baseline 30
  Emotional Triggers: 7
obese, stressed patients [4]; patient six, 30 mg/day, Month 4, baseline 23
  Emotional Triggers: 4
obese, stressed patients [4]; patient ten, 75 rising to 150 mg/day, Month 4, baseline 14
  Emotional Triggers: 2
obese, stressed patients [4]; patient three, 50 rising to 150 mg/day, Month 4, baseline 34
  Emotional Triggers: 24
obese, stressed patients [4]; patient twelve, 75 then 100 mg/day, Month 4, baseline 25
  Emotional Triggers: 3
obese, stressed patients [5]
  summed Tension, Depression, Anger and Confusion scores on the POMS test: 16.8
rats; Rowland et al.
  tail pressure/tail pinch-induced eating: decrease the eating behavior
rats; reported by Garattini, quoted from Rowland et al.
  DI50, inhibition of tail pressure-induced eating: 0.6 mg/kg
